Measurements reported in patent US11479559B2, “Urea-substituted aromatic ring-linked dioxinoquinoline compounds, preparation method and uses thereof” (BEIJING SCITECH-MQ PHARMACEUTICALS LIMITED, priority 2018, dated 2022).
Where two headings read alike, the source gives them in different places.

Tests used:
VEGFR2 tyrosine kinase = VEGFR2 tyrosine kinase (Homo sapiens (Human), UniProt P35968); assay: Assay of small molecular compounds for inhibiting the activity of VEGFR-2 kinase (LANCE TR-FRET)
Description: (§1) The assay is based on the LANCE TR-FRET technology of Perkin Elmer Inc., and the assay method is as follows:
(§2) 2.5 μL of the gradient-diluted compounds were taken with a transfer pipette to a 384-well plate.
Addition of enzyme: 5 μL of 2× VEGFR2 kinase solution (concentration was 0.5 nM) was taken with a transfer pipette to the corresponding reaction well of the 384-well plate, mixed well and pre-reacted at room temperature for 30 minutes.
2.5 μL 4× Ultra ULight™-JAK-1 (Tyr1023) Peptide (concentration was 200 nM)/ATP (concentration was 40 μMM) mixture was taken with a transfer pipette to the corresponding reaction well of the 384-well plate.
Negative control: 2.5 μL/well 4× substrate/ATP mixture and 7.5 μL 1× Kinase Assay Buffer were added to the wells of the 384-well plate.
(§3) The final concentration of DMSO in the reaction system was 4%.
(§4) The mixture was mixed well and then centrifuged and reacted at room temperature in dark for 60 min.
(§5) The 384-well plate was placed into the Envision plate reader and the signal was detected using the appropriate program.

RET tyrosine kinase = RET tyrosine kinase (Homo sapiens (Human), UniProt P07949); assay: Assay of small molecular compounds for inhibiting the activity of RET kinase (LANCE TR-FRET)
RET tyrosine kinase, sequence (P07949 29-1114): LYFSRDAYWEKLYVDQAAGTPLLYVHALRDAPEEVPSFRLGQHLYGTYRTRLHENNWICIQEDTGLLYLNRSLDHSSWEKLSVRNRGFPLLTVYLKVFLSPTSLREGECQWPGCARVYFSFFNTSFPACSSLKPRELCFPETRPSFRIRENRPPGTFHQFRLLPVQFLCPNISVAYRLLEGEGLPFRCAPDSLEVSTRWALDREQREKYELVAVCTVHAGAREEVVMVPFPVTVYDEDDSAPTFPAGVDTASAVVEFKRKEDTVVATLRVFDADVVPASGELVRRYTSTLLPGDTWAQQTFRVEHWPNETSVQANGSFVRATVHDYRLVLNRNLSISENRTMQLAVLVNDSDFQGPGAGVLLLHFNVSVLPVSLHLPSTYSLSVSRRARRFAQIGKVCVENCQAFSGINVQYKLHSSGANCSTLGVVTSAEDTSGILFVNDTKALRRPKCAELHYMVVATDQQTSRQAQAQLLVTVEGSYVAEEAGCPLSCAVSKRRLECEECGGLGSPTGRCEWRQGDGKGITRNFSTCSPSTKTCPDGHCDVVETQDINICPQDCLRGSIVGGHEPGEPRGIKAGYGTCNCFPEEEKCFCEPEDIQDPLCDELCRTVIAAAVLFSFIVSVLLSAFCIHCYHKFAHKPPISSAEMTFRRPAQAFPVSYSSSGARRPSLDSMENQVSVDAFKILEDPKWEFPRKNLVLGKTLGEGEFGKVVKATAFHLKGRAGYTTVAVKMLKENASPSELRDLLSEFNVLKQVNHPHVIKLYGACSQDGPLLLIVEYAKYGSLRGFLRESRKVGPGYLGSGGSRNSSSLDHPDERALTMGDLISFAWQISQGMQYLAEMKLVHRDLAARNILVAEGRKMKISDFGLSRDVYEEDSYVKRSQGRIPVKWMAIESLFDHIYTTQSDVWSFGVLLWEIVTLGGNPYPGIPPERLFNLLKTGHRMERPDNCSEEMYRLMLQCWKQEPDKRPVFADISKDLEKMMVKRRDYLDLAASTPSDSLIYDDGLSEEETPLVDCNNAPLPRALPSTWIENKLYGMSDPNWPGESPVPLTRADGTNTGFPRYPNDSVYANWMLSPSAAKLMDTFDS
Description: as §1, §2
Addition of enzyme: 5 μL of 2× RET kinase solution (concentration was 0.8 nM) was taken with a transfer pipette to the corresponding reaction well of the 384-well plate, mixed well and pre-reacted at room temperature for 30 minutes.
2.5 μL 4× Ultra ULight™-JAK-1 (Tyr1023) Peptide (concentration was 200 nM)/ATP (concentration was 40 μM) mixture was taken with a transfer pipette to the corresponding reaction well of the 384-well plate.
as §3, §4, §5

VEGFR2 tyrosine kinase, sequence (P35968 20-1356): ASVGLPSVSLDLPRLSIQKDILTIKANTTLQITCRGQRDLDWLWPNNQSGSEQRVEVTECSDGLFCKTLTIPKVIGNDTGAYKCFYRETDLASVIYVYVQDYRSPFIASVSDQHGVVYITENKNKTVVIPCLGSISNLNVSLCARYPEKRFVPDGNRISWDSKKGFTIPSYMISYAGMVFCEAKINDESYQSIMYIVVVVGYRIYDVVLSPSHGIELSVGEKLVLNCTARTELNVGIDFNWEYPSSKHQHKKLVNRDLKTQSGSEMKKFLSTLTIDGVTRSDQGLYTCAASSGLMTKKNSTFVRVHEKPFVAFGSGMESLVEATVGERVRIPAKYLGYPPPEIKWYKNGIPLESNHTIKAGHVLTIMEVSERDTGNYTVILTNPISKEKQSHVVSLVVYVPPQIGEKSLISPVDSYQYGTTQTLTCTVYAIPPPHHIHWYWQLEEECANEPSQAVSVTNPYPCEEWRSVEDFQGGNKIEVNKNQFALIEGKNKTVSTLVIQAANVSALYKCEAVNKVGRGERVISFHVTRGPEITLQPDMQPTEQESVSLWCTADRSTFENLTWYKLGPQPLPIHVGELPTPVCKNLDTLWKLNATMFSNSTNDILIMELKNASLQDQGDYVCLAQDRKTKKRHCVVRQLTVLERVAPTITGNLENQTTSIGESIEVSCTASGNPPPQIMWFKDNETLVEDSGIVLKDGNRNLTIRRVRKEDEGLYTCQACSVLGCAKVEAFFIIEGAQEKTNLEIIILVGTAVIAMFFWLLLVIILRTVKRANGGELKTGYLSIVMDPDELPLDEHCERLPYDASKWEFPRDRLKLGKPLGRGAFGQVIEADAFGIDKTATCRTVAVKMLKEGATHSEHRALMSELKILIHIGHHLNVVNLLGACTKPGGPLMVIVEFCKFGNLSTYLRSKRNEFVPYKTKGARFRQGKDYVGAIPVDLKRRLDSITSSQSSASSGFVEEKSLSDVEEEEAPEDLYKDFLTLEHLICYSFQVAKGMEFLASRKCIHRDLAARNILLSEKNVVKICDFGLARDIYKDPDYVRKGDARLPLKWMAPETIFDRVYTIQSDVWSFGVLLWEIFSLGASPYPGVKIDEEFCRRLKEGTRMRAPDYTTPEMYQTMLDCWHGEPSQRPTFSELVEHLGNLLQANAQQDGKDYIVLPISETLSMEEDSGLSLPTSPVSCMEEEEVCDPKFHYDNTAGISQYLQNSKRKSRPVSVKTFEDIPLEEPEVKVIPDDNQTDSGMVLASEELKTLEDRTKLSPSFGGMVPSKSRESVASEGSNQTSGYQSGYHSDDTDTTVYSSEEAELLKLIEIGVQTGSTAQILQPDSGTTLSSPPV

SMILES	IC50 (VEGFR2 tyrosine kinase; read-out: VEGFR-2 IC50) [nM]	IC50 (RET tyrosine kinase; read-out: RET IC50) [nM]	IC50 (VEGFR2 tyrosine kinase) [nM]	IC50 (RET tyrosine kinase) [nM]
COCCCOc1cc2nccc(Oc3ccc(NC(=O)NC4CCC4)c(Cl)c3)c2c2c1OCCO2 [Example 72, 1-(2-chloro-4-((5-(3-methoxypropoxy)-2,3-dihydro-[1,4]dioxino[2,3-f]quinolin-10-yl)oxy)phenyl)-3-cyclobutylurea]	< 50	< 50	–	–
CN1CCN(CCCOc2cc3nccc(Oc4ccc(NC(=O)NC5CC5)c(Cl)c4)c3c3c2OCCO3)CC1 [Example 56, 1-(2-chloro-4-((5-(3-(4-methylpiperazin-1-yl)propoxy)-2,3-dihydro-[1,4]dioxino[2,3-f]quinolin-10-yl)oxy)phenyl)-3-cyclopropylurea]	< 50	< 50	–	–
CCCNC(=O)Nc1ccc(Oc2ccnc3cc(OCCCN4CCOCC4)c4c(c23)OCCO4)cc1Cl [Example 87, 1-(2-chloro-4-((5-(3-morpholinopropoxy)-2,3-dihydro-[1,4]dioxino[2,3-f]quinolin-10-yl)oxy)phenyl)-3-prop ylurea]	–	–	< 50	< 50
O=C(Nc1ccc(Oc2ccnc3cc(OC4CCOC4)c4c(c23)OCCO4)cc1Cl)NC1CC1 (stereo not drawn) [Example 66, 1-(2-chloro-4-((5-((tetrahydrofuran-3-yl)oxy)-2,3-dihydro-[1,4]dioxino[2,3-f]quinolin-10-yl)oxy)phenyl)-3-cyclopropylurea]	< 50	< 50	–	–
Cc1ccc(C(F)(F)F)cc1NC(=O)Nc1ccc(Oc2ccnc3cc(OCCCN4CCOCC4)c4c(c23)OCCO4)cc1 [Example 96, 1-(2-methyl-5-(trifluoromethyl)phenyl)-3-(4-((5-(3-morpholinopropoxy)-2,3-dihydro-[1,4]dioxino[2,3-f]quinolin-10-yl)oxy)phenyl)urea]	–	< 50	50 to 500	–
O=C(Nc1ccc(Oc2ccnc3cc(OCC4CC4)c4c(c23)OCCO4)cc1Cl)NC1CC1 [Example 46, 1-(2-chloro-4-((5-(cyclopropylmethoxy)-2,3-dihydro-[1,4]dioxino[2,3-f]quinolin-10-yl)oxy)phenyl)-3-cyclopropylurea]	< 50	< 50	–	–
COCCOc1cc2nccc(Oc3ccc(NC(=O)NC4CCC4)c(Cl)c3)c2c2c1OCCO2 [Example 70, 1-(2-chloro-4-((5-(2-methoxyethoxy)-2,3-dihydro-[1,4]dioxino[2,3-f]quinolin-10-yl)oxy)phenyl)-3-cyclobutylurea]	< 50	< 50	–	–
COCCN(C)CCCOc1cc2nccc(Oc3ccc(NC(=O)NC4CC4)c(Cl)c3)c2c2c1OCCO2 [Example 62, 1-(2-chloro-4-((5-(3-((2-methoxyethyl)(methyl)amino)propoxy)-2,3-dihydro-[1,4]dioxino[2,3-f]quinolin-10-yl)oxy)phenyl)-3-cyclopropylurea]	< 50	< 50	–	–
N#CCOc1cc2nccc(Oc3ccc(NC(=O)NC4CC4)c(Cl)c3)c2c2c1OCCO2 [Example 47, 1-(2-chloro-4-((5-(cyanomethoxy)-2,3-dihydro-[1,4]dioxino[2,3-f]quinolin-10-yl)oxy)phenyl)-3-cyclopropylurea]	< 50	< 50	–	–
COc1cc2nccc(Oc3ccc(NC(=O)Nc4ccc(Cl)c(C(F)(F)F)c4)cc3)c2c2c1OCCO2 [Example 1, 1-(4-chloro-3-(trifluoromethyl)phenyl)-3-(4-((5-methoxy-2,3-dihydro-[1,4]dioxino[2,3-f]quinolin-10-yl)oxy)phenyl)urea]	< 50	< 50	–	–
CN(C)CCCOc1cc2nccc(Oc3ccc(NC(=O)Nc4ccc(Cl)c(C(F)(F)F)c4)cc3)c2c2c1OCCO2 [Example 17, 1-(4-chloro-3-(trifluoromethyl)phenyl)-3-(4-((5-(3-(dimethylamino)propoxy)-2,3-dihydro-[1, 4]dioxino[2,3-f]quinolin-10-yl)oxy)phenyl)urea]	< 50	< 50	–	–
CC1(O)CCN(CCCOc2cc3nccc(Oc4ccc(NC(=O)Nc5ccc(Cl)c(C(F)(F)F)c5)cc4)c3c3c2OCCO3)CC1 [Example 25, 1-(4-chloro-3-(trifluoromethyl)phenyl)-3-(4-((5-(3-(4-hydroxy-4-methylpiperidin-1-yl)propoxy)-2,3-dihydro-[1,4]dioxino[2,3-f]quinolin-10-yl)oxy)phenyl)urea]	< 50	< 50	–	–
CC1(C)CCN(CCCOc2cc3nccc(Oc4ccc(NC(=O)NC5CC5)c(Cl)c4)c3c3c2OCCO3)CC1 [Example 59, 1-(2-chloro-4-((5-(3-(4,4-dimethylpiperidin-1-yl)propoxy)-2,3-dihydro-[1,4]dioxino[2,3-f]quinolin-10-yl)oxy)phenyl)-3-cyclopropylurea]	< 50	< 50	–	–
O=C(Nc1ccc(Oc2ccnc3cc(OCCCN4CCCC4)c4c(c23)OCCO4)cc1)Nc1ccc(Cl)c(C(F)(F)F)c1 [Example 18, 1-(4-chloro-3-(trifluoromethyl)phenyl)-3-(4-((5-(3-(pyrrolidin-1-yl)propoxy)-2,3-dihydro-[1,4]dioxino[2,3-f]quinolin-10-yl)oxy)phenyl)urea]	< 50	< 50	–	–
O=C(Nc1ccc(Oc2ccnc3cc(OCCCN4CCOCC4)c4c(c23)OCCO4)cc1Cl)NC1CC1 [Example 55, 1-(2-chloro-4-((5-(3-morpholinopropoxy)-2,3-dihydro-[1,4]dioxino[2,3-f]quinolin-10-yl)oxy)phenyl)-3-cyclopropylurea]	< 50	< 50	–	–
